Test results reported in publication PMC10002375, “Synthesis of 3-(2-Alkylthio-4-chloro-5-methylbenzenesulfonyl)-2-(1-phenyl-3-arylprop-2-enylideneamino)guanidine Derivatives with Pro-Apoptotic Activity against Cancer Cells” (International Journal of Molecular Sciences, 2023).

Experiments:
Assay type in all cases: cell-based, human
HCT-116 cells [1] = test: Cell cycle distribution by flow cytometry, HCT-116
Procedure: (§1) The cell cycle distribution was measured by flow cytometry analysis after incubation of MCF-7, HeLa, and HCT-116 with compounds 24 and 31 for 72 h.

HeLa cells [2] = test: Cell cycle distribution by flow cytometry, HeLa; details: 72 h
Procedure: as §1

MCF-7 (breast cancer) = test: MTT cell viability assay, MCF-7; details: Homo sapiens, MCF7; MTT, 72 h
Text: The cytotoxic activity of the compounds 8–33 has been evaluated in MTT assays against three human cancer cell lines MCF-7 (breast cancer), HeLa (cervical cancer), and HCT-116 (colon cancer) and it was expressed as IC50 values in μM (Table 1).
(§2) All chemicals, if not stated otherwise, were obtained from Sigma-Aldrich (St. Louis, MO, USA). The MCF-7 cell line was purchased from Cell Lines Services (Eppelheim, Germany), the HeLa and HCT-116 cell lines were obtained from the Department of Microbiology, Tumor and Cell Biology, Karolinska Institute (Stockholm, Sweden). Cells were cultured in Dulbecco’s modified Eagle’s medium (DMEM) supplemented with 10% fetal bovine serum, 2 mM glutamine, 100 units/mL penicillin, and 100 μg/mL streptomycin. Cultures were maintained in a humidified atmosphere with 5% CO2 at 37 °C in an incubator (HeraCell, Heraeus, Langenselbold, Germany).
(§3) Cell viability was determined using the MTT (3-(4,5-dimethylthiazol-2-yl)-2,5-diphenyl-tetrazoliumbromide) assay. Stock solutions of the studied compounds were prepared in 100% DMSO. […] Cells were seeded in 96-well plates at a density of 5 × 10^3 cells/well and treated for 72 h with the examined compounds in the concentration range 1–100 μM (1, 10, 25, 50, and 100 μM). Following treatment, MTT (0.5 mg/mL) was added to the medium and cells were further incubated for 2 h at 37 °C. Cells were lysed with DMSO and the absorbance of the formazan solution was measured at 550 nm with a plate reader (1420 multilabel counter, Victor, Jügesheim, Germany). […] The experiment was performed in triplicate. Values are expressed as the mean ± SD of at least three independent experiments.

MCF-7 cells [3] = test: Phosphatidylserine translocation (Annexin V-FITC/PI), MCF-7; details: MCF-7, 72 h; 24 at 10 or 25 μM, 31 at 25 μM
Text: (§4) One of the early indicators of apoptosis is the exposure of phosphatidylserine residues on the cell’s surface. Annexin V has a high affinity to phosphatidylserine and, as a conjugate to fluorescein isothiocyante (FITC), is widely used for detection of early apoptotic cells using flow cytometry. Detection of late-apoptotic or necrotic cells is achieved by using propidium iodide (PI) stain. Based on the obtained fluorescence, four subpopulations were found: PI-low/FITC-low (live cells), PI-high/FITC-low (necrotic cells), PI-low/FITC-high (early apoptotic cells), and PI-high/FITC-high (late apoptotic cells).
(§5) Analysis was performed using FITC-conjugated annexin-V (Annexin V-FITC Apoptosis Kit I, BD Biosciences, San Jose, CA, USA) according to the manufacturer’s instructions (BD Biosciences) as described previously. HeLa, MCF-7, and HCT-116, after seeding to 24-well plates (5 × 10^4/per well) and 24 h incubation, were treated for 72 h with 24 or 31 (10/25 µM or 25 µM concentration respectively). Following treatment, cells were washed in PBS, centrifuged, and then resuspended in a binding buffer. Afterward, the cells were incubated for 15 min at 37 °C with FITC-conjugated annexin-V and propidium iodide. The samples were then analyzed using a LSR II flow cytometer (BD Biosciences) using 530 ± 25 nm (Annexin V-FITC) and 575 ± 26 nm (PI).
(§6) The subpopulations were identified according to their fluorescence: PI-low/FITC-low (live cells), PI-high/FITC-low (necrotic cells), PI-low/FITC-high (early apoptotic cells), and PI-high/FITC-high (late apoptotic cells).

MCF-7 cells [4] = test: Cell cycle distribution by flow cytometry, MCF-7
Procedure: as §1

HCT-116 cells [5] = test: Phosphatidylserine translocation (Annexin V-FITC/PI), HCT-116; details: HCT-116, 72 h; 24 at 10 or 25 μM, 31 at 25 μM
Text: as §4, §5, §6

MCF-7 cells [6] = test: Mitochondrial membrane potential (JC-1, flow cytometry), MCF-7; details: MCF-7, 72 h, 24 at 10 or 25 μM, 31 at 25 μM
Text: (§7) A decrease in mitochondrial potential is one of the earliest hallmarks of apoptosis. A common method for indication of cells with high and low Δψm is flow cytometry combined with specific fluorescent probes, such as JC-1 (5,5′,6,6′-tetrachloro-1,1′,3,3′-tetraethylbenzimidazolylcarbocyanine iodide). JC-1 accumulates in mitochondria and forms complexes (J aggregates) with red fluorescence in healthy cells with a normal ΔΨm, whereas in apoptotic cells with a low ΔΨm exists as a monomer with green fluorescence.
(§8) Analyzed cells were seeded into wells of a 24-well plate at a density of 5 × 10^4 cells in 1000 µL, incubated overnight, and then the medium was exchanged for dilutions of reagents 24 and 31. Before the end of 72 h of incubation, MitoProbe JC-1 (25 µM) was added into each plate well. Carbonyl cyanide m-chlorophenylhydrazone CCCP (200 nM) as the mitochondrial oxidative phosphorylation uncoupler was added into the positive control 15 min before JC-1 was added. After 30 min of JC-1 staining, cells were washed with PBS and then trypsinized (Corning® 25-053CI). Cells suspended in PBS were analyzed by flow cytometry at λ excitation (ex) = 488 nm and λ emission (em) = 525/570 nm (LSR II BD Biosciences, San Jose, CA, USA).

HCT-116 cells [7] = test: Mitochondrial membrane potential (JC-1, flow cytometry), HCT-116; details: HCT-116, 72 h, 24 at 10 or 25 μM, 31 at 25 μM
Text: as §7, §8

HeLa (cervical cancer) = test: MTT cell viability assay, HeLa; details: Homo sapiens, HeLa; MTT, 72 h
Procedure: as §2, §3

HCT-116 (colon cancer) = test: MTT cell viability assay, HCT-116; details: Homo sapiens, HCT-116; MTT, 72 h
Procedure: as §2, §3

HeLa cells [8] = test: Mitochondrial membrane potential (JC-1, flow cytometry), HeLa; details: 72 h, 24 at 10 or 25 μM, 31 at 25 μM
Text: as §7, §8

HeLa cells [9] = test: Phosphatidylserine translocation (Annexin V-FITC/PI), HeLa; details: 72 h, 24 at 10 or 25 μM, 31 at 25 μM
Text: as §4, §5, §6

Q: `COc1ccc(C=CC(=NN=C(N)NS(=O)(=O)c2cc(C)c(Cl)cc2SCc2ccc(Cl)cc2)c2ccccc2)cc1` [Compound 31] was tested. Which “cells in sub-G1 phase” value (HCT-116 cells [1]; HCT-116, 25 μM, 72 h, control 1.15%) did it give?
A: 1.84%

Q: And the “effect on cell cycle distribution” value (HCT-116 cells [1]; HCT-116, 72 h, 24 at 10 and 25 μM, 31 at 25 μM)?
A: does not substantially affect the cell cycle progression

Q: What about the “cells in sub-G1 phase” value (HeLa cells [2]; 25 μM, control 5.08%) of the same compound?
A: 5.45%

Q: What about the “effect on cell cycle distribution” value (HeLa cells [2]; 24 at 10 and 25 μM, 31 at 25 μM) of the same compound?
A: does not substantially affect the cell cycle progression

Q: And the IC50 (MCF-7 (breast cancer))?
A: 230 ± 13 µM

Q: What about the “population of apoptotic cells (Annexin V-FITC/PI)” value (from here on “population of apoptotic cells”) (MCF-7 cells [3]) of the same compound?
A: did not cause statistically significant differences compared to the control

Q: And the “cells in sub-G1 phase” value (MCF-7 cells [4]; MCF-7, 25 μM, 72 h)?
A: 2.78%

Q: What about the “effect on cell cycle distribution” value (MCF-7 cells [4]; MCF-7, 72 h, 24 at 10 and 25 μM, 31 at 25 μM) of the same compound?
A: does not substantially affect the cell cycle progression

Q: What about the “population of apoptotic cells” value (HCT-116 cells [5]) of the same compound?
A: did not cause statistically significant differences compared to the control

Q: And the “change of mitochondrial membrane potential (ΔΨm)” value (from here on “change … (ΔΨm)”) (MCF-7 cells [6])?
A: did not result in a loss of ΔΨm

Q: What about the “change … (ΔΨm)” value (HCT-116 cells [7]) of the same compound?
A: did not result in a loss of ΔΨm

Q: And the IC50 (HeLa (cervical cancer))?
A: 110 ± 5 µM

Q: What about the IC50 (HCT-116 (colon cancer)) of the same compound?
A: 365 ± 11 µM

Q: What about the “change … (ΔΨm)” value (HeLa cells [8]) of the same compound?
A: did not result in a loss of ΔΨm

Q: What about the “population of apoptotic cells” value (HeLa cells [9]) of the same compound?
A: did not cause statistically significant differences compared to the control
